Experimental data taken from PMC7188728, “A phase I study investigation of metabolism, and disposition of [^14C]-anlotinib after an oral administration in patients with advanced refractory solid tumors” (Cancer Chemotherapy and Pharmacology, 2020).
Structures can show the parent of a compound that is named as a salt.

What was measured:
[1] = Metabolite radio-profiling (LC-RAM, LC-MS/MS) of plasma, urine and feces; format: in vivo, human
Experimental: An equal volume of 2, 4, 8, 12, 24, and 96 h plasma sample was pooled by time-point across subject 03 ~ 06, to give six pooled plasma samples for metabolite profiling. An appropriate volume (3x, v/v) of acetonitrile was added to a portion of the pooled plasma sample, followed by vortexing ca. 2 min. After storage in a refrigerator for ca. 30 min, the mixture was centrifuged at ca. 10000 g at 4 °C for 10 min. The supernatant was then separated from the PES, which was suspended with water, followed by addition of methanol (2x, v/v) twice. The three extracts were combined and evaporated to dryness under a nitrogen stream by an N-Evap evaporator at room temperature. The residues were reconstituted with an appropriate volume of methanol:water (1:1, v/v) and centrifuged at ca. 10000 g at 4 ℃ for 10 min. The supernatant was subjected to HPLC radio-profiling.
Four pooled human urine samples (subject 03 ~ 06) were pooled from 0 to 432 h based on equal volume ratios from the individual patients across time intervals. In addition, three pooled urine samples (0–48, 48–120 and 360–432 h) (subjects 03–06) were prepared by pooling human urine samples across subjects and time points. Portion of the pooled urine sample was evaporated to a small volume under a nitrogen stream and extracted with methanol (3x, v/v) followed by centrifuged at ca. 10000 g at 4 ℃ for 10 min. The supernatant was reconstituted with an appropriate volume of methanol:water (1:1, v/v) and centrifuged at ca. 10000 g at 4 ℃ for 10 min. The supernatant was subjected to HPLC radio-profiling.
Four human fecal samples (0–432 h) were prepared by pooling feces from individual subjects (Subjects 03–06). In addition, three pooled human fecal samples (0–48, 48–120 and 360–432 h) were prepared by pooling feces samples across subjects and time points. The pooled fecal homogenate was extracted with methanol (3x, v/v) and the mixture was vortexed, and centrifuged at ca. 10000 g at 4 ℃ for 10 min. The supernatant was then separated from the PES, which was suspended with water, followed by addition of methanol twice. The three extracts were combined and evaporated to dryness under a nitrogen stream by an N-Evap evaporator at room temperature. The residues were reconstituted with an appropriate volume of methanol:water (1:1, v/v) and centrifuged at ca. 10000 g at 4 ℃ for 10 min prior to analysis.
HPLC coupled with radioactivity monitor (LC-RAM) was used to isolate and quantitate [^14C] anlotinib and its metabolites. The plasma and fecal extracts as well as urine supernatants were subjected to HPLC separation, fractionation, and eluent collection. The radioactivity in each fraction was monitored by solid scintillation counting using a Packard TopCount® NXT™ Microplate Counter. The radio-profiles were then reconstructed using ARC® Convert software. The peak area of each radioactivity peak/region was integrated using ARC® Evaluation software, and the percent distribution of each peak/region was calculated (%TRA for plasma or %Dose for urine and feces).
Metabolites were characterized and/or identified by LC–MS/MS in conjunction with on-line radioactivity detection. Structures of metabolites were proposed by interpretation of the mass spectral fragmentation pattern, as well as chromatographic behaviors and metabolic pathways.

VEGFR2/KDR and VEGFR3 = system: VEGFR2/KDR and VEGFR3; design: method as in PMID 29454091; settings: recombinant enzymes; cited from earlier work
[2] = system: advanced refractory solid tumors; test: Tumor response evaluation in patients with advanced refractory solid tumors; format: in vivo, human; settings: six patients enrolled
[3] = system: human cytochrome P450 2C9; design: method as in PMID 29441353; settings: in vitro; read-out: Half maximum inhibitory concentration; cited from earlier work

Drug-related component in feces, % of the dose ([1]; feces, pooled 0–432 h, subjects 03–06, single oral 14.15 mg/120 μCi): 5.64 % of the dose
Drug-related component in human plasma (radio-profile) ([1]; pooled plasma 2–96 h, subjects 03–06, listed as parent drug): major drug-related component
Drug-related component in urine, % of the dose ([1]; urine, pooled 0–432 h, subjects 03–06, single oral 14.15 mg/120 μCi): 0.73 % of the dose
SMILES: COc1cc2c(Oc3ccc4[nH]c(C)cc4c3F)ccnc2cc1OCC1(N)CC1 [anlotinib, 1-[[4-(4-fluoro-2-methyl-1H-indol-5-yloxy)-6-methoxyquinolin-7-yl]oxy]methyl) cyclopropanamine dihydrochloride]
Capability to inhibit VEGFR2/KDR and VEGFR3, times stronger compared with sorafenib (VEGFR2/KDR and VEGFR3): ~500 times
Capability to inhibit VEGFR2/KDR and VEGFR3, times stronger compared with sunitinib (VEGFR2/KDR and VEGFR3): approximately 20 times
Tumor response: partial response (PR) [2]: one
Tumor response: progressive disease (PD) [2]: one
IC50 [3]: 250 nM
